Patent publication US9732060B2, “Aminotriazine derivative and pharmaceutical composition comprising the same” (Shionogi & Co., Ltd., priority 2013, dated 2017)
Where two headings read alike, the source gives them in different places.

Key:
[1] = Protein binding test (equilibrium dialysis, unbound fraction in serum); type: in vitro ADME; conditions: 37° C.
Protocol: The unbound fraction of the present compound in serum was measured using serum of various species.
The reactive conditions are as follows: Evaluation method, Equilibrium dialysis; Reaction time, 24 hours; Reaction temperature, 37° C.; Concentration of the present compound, 2 μg/mL
The test solution was added to each serum and the mixture was agitated to prepare the serum samples at the concentration mentioned above. Each serum sample was added into one side of the cell and phosphate buffered saline (PBS) was added into the other side to perform equilibrium dialysis at 37° C. for 24 hours. Then, the concentration of the compounds in the samples that were obtained from both sides was measured by LC/MS/MS.
The ratio of PBS concentration to serum concentration is expressed as unbound fraction (fu),

[2] = Metabolism stability test, pooled human hepatic microsomes; type: in vitro ADME; conditions: remaining rate, human liver microsomes, 30 minutes, compound concentration 0.5 μmol/L
Protocol: Using commercially available pooled human hepatic microsomes, a test compound is reacted for a constant time, a remaining rate is calculated by comparing a reacted sample and an unreacted sample, thereby, a degree of metabolism in liver is assessed.
A reaction was performed (oxidative reaction) at 37° C. for 0 minute or 30 minutes in the presence of 1 mmol/L NADPH in 0.2 mL of a buffer (50 mmol/L tris-HCl pH 7.4, 150 mmol/L potassium chloride, 10 mmol/L magnesium chloride) containing 0.5 mg protein/mL of human liver microsomes. After the reaction, 50 μL of the reaction solution was added to 100 μL of a methanol/acetonitrile=1/1 (v/v) mixed and centrifuged at 3000 rpm for 15 minutes. The test compound in the supernatant was quantified by LC/MS/MS, and a remaining amount of the test compound after the reaction was calculated, letting a compound amount at 0 minute reaction time to be 100%.
The remaining rate at the compound concentration 0.5 μmol/L are shown below.

Rat P2X3 receptor = Rat P2X3 receptor (Rattus norvegicus (Rat), UniProt P49654); experiment: Evaluation of rat P2X3 receptor inhibitory activity in the presence of rat serum albumin (RSA); type: cell-based; conditions: read-out: ratP2X3 + RSA IC50
Protocol: Rat P2X3 receptor gene (GenBank accession number NM_031075) was expressed in C6BU-1 cell. The C6BU-1 cells were seeded in a 96-well micro titer plate at a concentration of 2500 cells/well and cultured in the medium (7.0% fetal bovine serum, 7.0% horse serum, and 1% antibiotic and antifungal in DMEM) for one day at 37° C. under 5% carbon dioxide atmosphere. The plasmid was transfected into the cells using transfection reagent FuGENE6 (Promega). The transfected cells were cultured in the medium for one day at 37° C. under 5% carbon dioxide atmosphere. The medium was replaced with 4 μM Fluo-4-AM solution (pH 7.5) containing 20 mM HEPES, 137 mM NaCl, 5.27 mM KCl, 0.9 mM MgCl2, 1.26 mM CaCl2, 5.6 mM D-glucose, 2.5 mM probenecid, 10% RSA, and 0.08% Pluronic F-127, and incubated at 37° C. under 5% dioxide carbon atmosphere for one hour. The plate was washed with washing buffer (20 mM HEPES, 137 mM NaCl, 5.27 mM KCl, 0.9 mM MgCl2, 1.26 mM CaCl2, 5.6 mM D-glucose, 2.5 mM probenecid, pH 7.5), and each well was added with 40 μL of this buffer. The plate was placed in High-Throughput Screening System FDSS 3000 (Hamamatsu Photonics K.K.). Measurement of fluorescence intensity by FDSS 3000 was started, and 40 μL of DMSO solutions containing 1% RSA (final concentrations) and different concentrations of the test compound as prepared by dilution with dilution buffer (20 mM HEPES, 137 mM NaCl, 5.27 mM KCl, 0.9 mM MgCl2, 1.26 mM CaCl2, 5.6 mM D-glucose, 2.5 mM probenecid, 0.1% Pluronic F-127, pH 7.5) were dispensed to each well through the built-in automatic dispenser. Five minutes after, 50 nM ATP solution (50 μL) prepared by dilution with the dilution buffer was dispensed through the built-in automatic dispenser, and the measurement of fluorescence intensity was continued for 4 min. For each well, the specific maximum fluorescence intensity was calculated as the ratio of the maximum fluorescence intensity after addition of the ATP solution to the fluorescence intensity at the starting of the measurement. […] FDSS software (Hamamatsu Photonics K.K.) was used for calculation of the specific maximum fluorescence intensity. IC50 was calculated using Microsoft Excel (Microsoft Corporation) and XLfit (idbs Ltd.).

human P2X3 receptor = human P2X3 receptor (Homo sapiens (Human), UniProt P56373); experiment: Evaluation of human P2X3 receptor inhibitory activity in the presence of human serum albumin (HSA); type: cell-based; conditions: in the presence of 1% HSA (final concentration)
Protocol: Stably expressing cell line (C6BU-1 cell transfected with human P2X3 receptor gene (GenBank accession number Y07683; was used. The cells were seeded in a 96-well microtiter plate at a concentration of 8000 cells/well and cultured in the medium (7.0% fetal bovine serum, 7.0% horse serum, 1% antibiotic and antifungal, and 2.0% glutamine in DMEM) for one day at 37° C. under 5% carbon dioxide atmosphere. The medium was replaced with 4 μM Fluo-3-AM solution (20 mM HEPES, 137 mM NaCl, 5.37 mM KCl, 0.9 mM MgCl2, 1.26 mM CaCl2, 5.6 mM D-glucose, 2.5 mM probenecid, 0.5% BSA, and 0.04% Pluronic F-127, pH 7.5) and incubated at 37° C. under 5% dioxide carbon atmosphere for one hour. The plate was washed with washing buffer (20 mM HEPES, 137 mM NaCl, 5.27 mM KCl, 0.9 mM MgCl2, 1.26 mM CaCl2, 5.6 mM D-glucose, 2.5 mM probenecid, pH 7.5), and each well was added with 40 μL of this buffer. The plate was placed in High-Throughput Screening System FDSS 3000 (Hamamatsu Photonics K.K.). Measurement of fluorescence intensity by FDSS 3000 was started, and 40 μL of DMSO solutions containing 1% HSA (final concentrations) different concentrations of the test compound as prepared by dilution with dilution buffer (20 mM HEPES, 137 mM NaCl, 5.27 mM KCl, 0.9 mM MgCl2, 1.26 mM CaCl2, 5.6 mM D-glucose, 2.5 mM probenecid, 0.1% Pluronic F-127, pH 7.5) were dispensed to each well through the built-in automatic dispenser. Five minutes after, 50 nM ATP solution (50 μL) prepared by dilution with the dilution buffer was dispensed through the built-in automatic dispenser, and the measurement of fluorescence intensity was continued for 4 min. For each well, the specific maximum fluorescence intensity was calculated as the ratio of the maximum fluorescence intensity after addition of the ATP solution to the fluorescence intensity at the starting of the measurement. […] FDSS software (Hamamatsu Photonics K.K.) was used for calculation of the specific maximum fluorescence intensity. IC50 was calculated using Microsoft Excel (Microsoft Corporation) and XLfit (idbs Ltd.)

[3] = Solubility test (1% DMSO, artificial intestinal juice pH 6.8); type: physicochemical; conditions: artificial intestinal juice pH 6.8 with 1% DMSO, 25 °C, fassgf or other biorelevant, kinetic from dmso stock, artificial intestinal juice pH 6.8, 25 degrees Celsius, read-out: Solubulity
Protocol: The solubility of a compound was determined under a condition in which 1% DMSO was added. 10 mmol/L compound solution was prepared using DMSO, and then 2 μL of the compound solution was added to 198 μL of artificial intestinal juice in pH 6.8 (to 250 mL of 0.2 mol/L potassium dihydrogen phosphate reagent solution was added 118 mL of 0.2 mol/L NaOH reagent solution and water to provide a final volume of 1000 mL). After standing at 25 degrees Celsius for 18 hours, the mixed solution was filtrated with suction. The filtrate was diluted twice with methanol/water (1/1), and then a concentration in the filtration was measured with HPLC or LC/MS/MS by the absolute calibration method.

CYP3A4 = CYP3A4 (Homo sapiens (Human), UniProt P08684); experiment: CYP inhibition test, CYP3A4; type: in vitro ADME; conditions: pooled human hepatic microsome; terfenedine hydroxylation
Protocol: (§1) Using commercially available pooled human hepatic microsome, and employing, as markers, 7-ethoxyresorufin-O-deethylation (CYP1A2), tolbutamide methyl-hydroxylation (CYP2C9), mephenytoin 4′-hydroxylation (CYP2C19), dextromethorphan O-demethylation (CYP2D6), and terfenedine hydroxylation as typical substrate metabolism reactions of human main five CYP enzyme forms (CYP1A2, 2C9, 2C19, 2D6, 3A4), an inhibitory degree of each metabolite production amount by a test compound was assessed.
(§2) The reaction conditions were as follows: substrate, 0.5 μmol/L ethoxyresorufin (CYP1A2), 100 μmol/L tolbutamide (CYP2C9), 50 μmol/L S-mephenitoin (CYP2C19), 5 μmol/L dextromethorphan (CYP2D6), 1 μmol/L terfenedine (CYP3A4); reaction time, 15 minutes; reaction temperature, 37° C. enzyme, pooled human hepatic microsome 0.2 mg protein/mL; test, drug concentration, 1.0, 5.0, 10, 20 μmol/L (four points).
(§3) Each five kinds of substrates, human hepatic microsome, or a test drug in 50 mmol/L Hepes buffer as a reaction solution was added to a […] at the composition as described above, NADPH, as a cofactor was added to initiate metabolism reactions as markers and, after the incubation at 37° C. for 15 minutes, a methanol/acetonitrile=1/1 (v/v) solution was added to stop the reaction. After the centrifugation at 3000 rpm for 15 minutes, resorufin (CYP1A2 metabolite) in the supernatant was quantified by a fluorescent multilabel counter and tributamide hydroxide (CYP2CP metabolite), mephenytoin 4′hydroxide (CYP2C19 metabolite), […] (CYP2D6 metabolite), and terfenadine alcohol (CYP3A4 metabolite) were quantified by LC/MS/MS.
(§4) Addition of only DMSO being a solvent dissolving a drug to a reaction system was adopted as a control (100%), remaining activity (%) was calculated at each concentration of a test drug added as the solution and IC50 was calculated by reverse presumption by a logistic model using a concentration and an inhibition rate.

CYP2D6 = CYP2D6 (Homo sapiens (Human), UniProt P10635); experiment: CYP inhibition test, CYP2D6; type: in vitro ADME; conditions: pooled human hepatic microsome; dextromethorphan O-demethylation
Protocol: as §1, §2, §3, §4

[4] = Pharmacokinetic test (BA, CLtot); type: in vivo; conditions: rat, plasma, SD rats
Protocol: • (1) Animals: SD rats were used • (2) Breeding conditions: SD rats were allowed to freely take solid food and sterilized tap water. • (3) Dose and grouping: orally or intravenously administered at a predetermined dose; grouping was as follows (Dose depends on the compound)
Oral administration: 1 mg/kg (n=2)
The total body clearance (CLtot) was calculated by dividing the dose by the AUC of the intravenous administration group.

CYP2C9 = CYP2C9 (Homo sapiens (Human), UniProt P11712); experiment: CYP inhibition test, CYP2C9; type: in vitro ADME; conditions: pooled human hepatic microsome; tolbutamide methyl-hydroxylation
Protocol: as §1, §2, §3, §4

CYP2C19 = CYP2C19 (Homo sapiens (Human), UniProt P33261); experiment: CYP inhibition test, CYP2C19; type: in vitro ADME; conditions: pooled human hepatic microsome; mephenytoin 4′-hydroxylation
Protocol: as §1, §2, §3, §4

CYP1A2 = CYP1A2 (Homo sapiens (Human), UniProt P05177); experiment: CYP inhibition test, CYP1A2; type: in vitro ADME; conditions: pooled human hepatic microsome; 7-ethoxyresorufin-O-deethylation
Protocol: as §1, §2, §3, §4

Rat P2X3 receptor, sequence (P49654 whole entry): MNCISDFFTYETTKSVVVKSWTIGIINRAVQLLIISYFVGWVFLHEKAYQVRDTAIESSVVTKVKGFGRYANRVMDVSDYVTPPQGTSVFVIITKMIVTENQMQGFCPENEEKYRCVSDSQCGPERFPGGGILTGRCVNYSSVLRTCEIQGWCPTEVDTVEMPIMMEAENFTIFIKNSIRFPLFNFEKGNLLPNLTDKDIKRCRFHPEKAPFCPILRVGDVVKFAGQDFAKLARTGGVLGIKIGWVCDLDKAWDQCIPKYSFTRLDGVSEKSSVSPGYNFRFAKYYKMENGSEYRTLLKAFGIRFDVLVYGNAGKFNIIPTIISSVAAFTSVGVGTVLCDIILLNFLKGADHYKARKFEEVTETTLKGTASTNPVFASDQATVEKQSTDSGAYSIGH
human P2X3 receptor, sequence (P56373 whole entry): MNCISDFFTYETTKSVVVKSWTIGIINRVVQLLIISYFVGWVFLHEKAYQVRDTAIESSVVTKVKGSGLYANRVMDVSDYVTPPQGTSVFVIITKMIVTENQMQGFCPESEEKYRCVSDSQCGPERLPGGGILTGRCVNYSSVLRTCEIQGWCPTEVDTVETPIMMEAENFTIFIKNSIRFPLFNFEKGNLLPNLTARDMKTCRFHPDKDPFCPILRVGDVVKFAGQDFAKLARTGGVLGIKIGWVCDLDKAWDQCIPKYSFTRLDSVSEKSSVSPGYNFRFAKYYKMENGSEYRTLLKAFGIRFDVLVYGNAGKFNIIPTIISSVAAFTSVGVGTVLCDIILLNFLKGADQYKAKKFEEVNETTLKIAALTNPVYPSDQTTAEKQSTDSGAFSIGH
CYP2C19, sequence (P33261 whole entry): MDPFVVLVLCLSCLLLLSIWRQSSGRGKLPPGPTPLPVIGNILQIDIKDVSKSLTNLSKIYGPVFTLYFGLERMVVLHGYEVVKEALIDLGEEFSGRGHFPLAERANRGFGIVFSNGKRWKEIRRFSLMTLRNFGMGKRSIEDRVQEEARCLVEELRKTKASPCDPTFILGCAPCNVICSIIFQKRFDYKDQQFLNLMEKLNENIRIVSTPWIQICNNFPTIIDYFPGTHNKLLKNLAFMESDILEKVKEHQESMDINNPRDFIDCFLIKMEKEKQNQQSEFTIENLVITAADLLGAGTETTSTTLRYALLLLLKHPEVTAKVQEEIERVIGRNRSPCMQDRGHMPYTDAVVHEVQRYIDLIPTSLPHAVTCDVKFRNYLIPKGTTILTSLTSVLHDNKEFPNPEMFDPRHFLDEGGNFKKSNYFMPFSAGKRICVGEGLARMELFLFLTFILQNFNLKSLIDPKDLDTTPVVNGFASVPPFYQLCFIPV
CYP2C9, sequence (P11712 whole entry): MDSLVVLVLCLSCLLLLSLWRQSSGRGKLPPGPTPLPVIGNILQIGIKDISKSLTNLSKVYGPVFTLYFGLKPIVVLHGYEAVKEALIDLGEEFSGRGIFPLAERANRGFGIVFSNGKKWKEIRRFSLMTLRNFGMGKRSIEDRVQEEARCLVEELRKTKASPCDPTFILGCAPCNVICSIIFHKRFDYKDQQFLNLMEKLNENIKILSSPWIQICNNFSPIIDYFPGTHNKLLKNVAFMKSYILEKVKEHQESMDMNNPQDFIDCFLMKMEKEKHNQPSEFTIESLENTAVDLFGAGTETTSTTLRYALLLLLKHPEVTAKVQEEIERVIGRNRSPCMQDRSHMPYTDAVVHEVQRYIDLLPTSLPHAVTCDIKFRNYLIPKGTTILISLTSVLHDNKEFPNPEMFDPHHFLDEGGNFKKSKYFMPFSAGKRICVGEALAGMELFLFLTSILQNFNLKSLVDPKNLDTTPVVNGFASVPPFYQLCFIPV
CYP1A2, sequence (P05177 whole entry): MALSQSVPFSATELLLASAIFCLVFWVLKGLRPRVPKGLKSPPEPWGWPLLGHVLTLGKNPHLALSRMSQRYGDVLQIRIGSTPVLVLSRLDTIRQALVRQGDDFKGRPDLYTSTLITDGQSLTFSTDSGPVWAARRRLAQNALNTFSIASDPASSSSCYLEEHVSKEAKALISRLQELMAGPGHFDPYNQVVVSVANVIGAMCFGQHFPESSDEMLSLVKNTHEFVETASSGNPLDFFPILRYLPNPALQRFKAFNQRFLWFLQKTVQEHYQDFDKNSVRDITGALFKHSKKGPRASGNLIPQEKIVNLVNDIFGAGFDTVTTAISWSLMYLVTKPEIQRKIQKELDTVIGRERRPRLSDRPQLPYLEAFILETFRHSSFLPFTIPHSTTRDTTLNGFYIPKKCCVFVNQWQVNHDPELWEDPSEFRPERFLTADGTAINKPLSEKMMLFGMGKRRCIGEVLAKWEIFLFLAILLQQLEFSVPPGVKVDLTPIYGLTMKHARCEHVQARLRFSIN
CYP3A4, sequence (P08684 whole entry): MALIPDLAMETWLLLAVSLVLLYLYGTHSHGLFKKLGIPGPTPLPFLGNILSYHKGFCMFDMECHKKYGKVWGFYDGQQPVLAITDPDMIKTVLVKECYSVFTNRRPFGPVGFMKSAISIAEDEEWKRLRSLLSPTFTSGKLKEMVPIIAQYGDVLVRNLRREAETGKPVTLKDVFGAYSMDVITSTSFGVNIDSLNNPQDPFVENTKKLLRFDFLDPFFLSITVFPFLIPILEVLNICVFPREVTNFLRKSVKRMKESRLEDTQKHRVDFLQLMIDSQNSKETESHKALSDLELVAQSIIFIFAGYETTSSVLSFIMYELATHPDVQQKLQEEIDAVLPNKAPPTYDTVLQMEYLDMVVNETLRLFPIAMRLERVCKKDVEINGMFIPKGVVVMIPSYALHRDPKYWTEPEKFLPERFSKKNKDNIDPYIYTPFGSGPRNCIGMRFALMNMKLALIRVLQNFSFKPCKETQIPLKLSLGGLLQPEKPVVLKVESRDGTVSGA
CYP2D6, sequence (P10635 whole entry): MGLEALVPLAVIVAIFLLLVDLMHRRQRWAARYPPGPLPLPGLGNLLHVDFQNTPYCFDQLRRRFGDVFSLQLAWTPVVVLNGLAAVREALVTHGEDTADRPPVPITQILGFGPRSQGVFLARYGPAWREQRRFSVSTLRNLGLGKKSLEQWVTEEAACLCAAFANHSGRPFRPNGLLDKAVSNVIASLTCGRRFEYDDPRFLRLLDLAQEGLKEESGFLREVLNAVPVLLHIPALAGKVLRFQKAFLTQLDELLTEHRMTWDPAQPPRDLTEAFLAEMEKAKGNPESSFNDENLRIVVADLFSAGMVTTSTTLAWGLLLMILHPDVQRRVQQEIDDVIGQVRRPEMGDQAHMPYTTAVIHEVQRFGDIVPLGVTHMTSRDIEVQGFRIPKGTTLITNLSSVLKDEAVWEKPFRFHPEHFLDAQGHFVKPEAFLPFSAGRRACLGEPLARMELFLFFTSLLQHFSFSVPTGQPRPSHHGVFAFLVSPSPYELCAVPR

Question: With `O=c1[nH]/c(=N\c2ccc(Oc3ccc(F)cn3)cc2)n(Cc2ccc(Cl)cc2)c(=O)n1[C@H]1C[C@H](C(=O)O)C1` [Compound I-019] as the molecule, how does the fraction unbound at 24 h, 2 μg/mL [1] read?
Answer: 0.01

Question: What about the “Metabolism Stability” value [2] of the same molecule?
Answer: 96%

Question: What about the IC50 (Rat P2X3 receptor) of the same molecule?
Answer: 11 nM

Question: What about the IC50 (human P2X3 receptor) of the same molecule?
Answer: 68 nM

Question: What about the solubility at 18 h [3] of the same molecule?
Answer: > 50 µM

Question: For `C[C@@H](Cn1c(=O)[nH]/c(=N\c2ccc(Oc3cccc(F)n3)cc2)n(Cc2ccc(F)cc2F)c1=O)C(=O)O` [Compound I-029], which fraction unbound at 24 h, 2 μg/mL [1] is on record?
Answer: 0.017

Question: What about the “Metabolism Stability” value [2] of the same molecule?
Answer: 100%

Question: Which results are given for `Cc1ccc(Cn2c(=O)n(C[C@H](C)C(=O)O)c(=O)[nH]/c2=N\c2ccc(Oc3ncccc3F)cc2)cc1` [Compound I-056]?
Answer: fraction unbound at 24 h, 2 μg/mL [1]: 0.018; IC50 (human P2X3 receptor): 23 nM

Question: With `Cc1ccc(Cn2c(=O)n(C[C@H](C)C(=O)O)c(=O)[nH]/c2=N\c2ccc(Oc3cccc(F)n3)cc2)cc1` [Compound I-057] as the molecule, how does the IC50 (CYP3A4) read?
Answer: > 20000 nM

Question: What about the fraction unbound at 24 h, 2 μg/mL [1] of the same molecule?
Answer: 0.017

Question: And the IC50 (CYP2D6)?
Answer: > 20000 nM

Question: And the “Metabolism Stability” value [2]?
Answer: 91%

Question: And the clearance ([4]; intravenous administration 0.5 mg/kg)?
Answer: 22.9 mL/min/kg

Question: What about the AUC ([4]; intravenous administration 0.5 mg/kg, read-out: AUC (iv)) of the same molecule?
Answer: 367 ng·h/mL

Question: And the AUC ([4]; oral administration 1 mg/kg, read-out: AUC (po))?
Answer: 487 ng·h/mL

Question: What about the IC50 (CYP2C9) of the same molecule?
Answer: > 20000 nM

Question: What about the IC50 (CYP2C19) of the same molecule?
Answer: > 20000 nM

Question: And the IC50 (CYP1A2)?
Answer: > 20000 nM

Question: What about the solubility at 18 h [3] of the same molecule?
Answer: > 50 µM

Question: What does the source list for `C[C@@H](Cn1c(=O)[nH]/c(=N\c2ccc(Oc3cnccn3)cc2)n(Cc2ccc(Cl)cc2)c1=O)C(=O)O` [Compound R-019]?
Answer: fraction unbound at 24 h, 2 μg/mL [1]: 0.018; IC50 (Rat P2X3 receptor): 8 nM
